Measurements: patent US20230203059A1, “MACROCYCLIC JAK INHIBITOR AND USES THEREOF” (Biopolar Hongye (Guangdong) Pharmaceutical Co. Ltd., priority 2020, published 2023)

Tests used:
Assay type in all cases: biochemical
JAK1 = JAK1 (Homo sapiens, UniProt P23458); assay: JAK kinase activity, homogeneous time-resolved fluorescence (JAK1 reaction system); conditions: ATP 2 μM, JAK1 protein 0.2 ng/μL; read-out: JAK 1 activity
Outline: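 Kinase activity read as the 665 nm/615 nm time-resolved fluorescence ratio (320 nm excitation) after EDTA-containing antibody and XL-615 addition. Reaction ran 1 h at pH 7.0 (Hepes, MgCl2, DTT) with 0.2 ng/μL JAK1 and ATP at 2 μM. IC50 derived by Hill-slope fit.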

TYK2 = TYK2 (Homo sapiens, UniProt P29597); assay: JAK kinase activity, homogeneous time-resolved fluorescence (TYK2 reaction system); conditions: ATP 2 μM, TYK2 protein 0.2 ng/μL; read-out: TYK 2 activity
Outline: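 Activity read as the 665 nm/615 nm ratio after adding EDTA-containing detection mix with anti-phospho-substrate antibody and XL-615. Beforehand, 0.2 ng/μL TYK2, 2 μM ATP, substrate and compound reacted 1 h in pH 7.0 Hepes buffer with MgCl2 and DTT. IC50 fitted with Hill-slope equation.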

JAK2 = JAK2 (Homo sapiens, UniProt O60674); assay: JAK kinase activity, homogeneous time-resolved fluorescence (JAK2 reaction system); conditions: ATP 2 μM, JAK2 protein 0.01 ng/μL
Outline: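 IC50 derived by Hill-equation fit of the 665/615 nm time-resolved fluorescence ratio after EDTA-containing detection mix with anti-phosphosubstrate antibody. Preceding 1 h reaction contained 2 μM ATP, 0.01 ng/μL JAK2, substrate, 50 mM Hepes pH 7.0, 5 mM MgCl2, 1 mM DTT.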

JAK3 = target: T1, JAK3 (Homo sapiens, UniProt P52333); assay: JAK kinase activity, homogeneous time-resolved fluorescence (JAK3 reaction system); conditions: ATP 2 μM, JAK3 protein 0.04 ng/μL; read-out: JAK 3 activity
T1 sequence (P52333 1-1124): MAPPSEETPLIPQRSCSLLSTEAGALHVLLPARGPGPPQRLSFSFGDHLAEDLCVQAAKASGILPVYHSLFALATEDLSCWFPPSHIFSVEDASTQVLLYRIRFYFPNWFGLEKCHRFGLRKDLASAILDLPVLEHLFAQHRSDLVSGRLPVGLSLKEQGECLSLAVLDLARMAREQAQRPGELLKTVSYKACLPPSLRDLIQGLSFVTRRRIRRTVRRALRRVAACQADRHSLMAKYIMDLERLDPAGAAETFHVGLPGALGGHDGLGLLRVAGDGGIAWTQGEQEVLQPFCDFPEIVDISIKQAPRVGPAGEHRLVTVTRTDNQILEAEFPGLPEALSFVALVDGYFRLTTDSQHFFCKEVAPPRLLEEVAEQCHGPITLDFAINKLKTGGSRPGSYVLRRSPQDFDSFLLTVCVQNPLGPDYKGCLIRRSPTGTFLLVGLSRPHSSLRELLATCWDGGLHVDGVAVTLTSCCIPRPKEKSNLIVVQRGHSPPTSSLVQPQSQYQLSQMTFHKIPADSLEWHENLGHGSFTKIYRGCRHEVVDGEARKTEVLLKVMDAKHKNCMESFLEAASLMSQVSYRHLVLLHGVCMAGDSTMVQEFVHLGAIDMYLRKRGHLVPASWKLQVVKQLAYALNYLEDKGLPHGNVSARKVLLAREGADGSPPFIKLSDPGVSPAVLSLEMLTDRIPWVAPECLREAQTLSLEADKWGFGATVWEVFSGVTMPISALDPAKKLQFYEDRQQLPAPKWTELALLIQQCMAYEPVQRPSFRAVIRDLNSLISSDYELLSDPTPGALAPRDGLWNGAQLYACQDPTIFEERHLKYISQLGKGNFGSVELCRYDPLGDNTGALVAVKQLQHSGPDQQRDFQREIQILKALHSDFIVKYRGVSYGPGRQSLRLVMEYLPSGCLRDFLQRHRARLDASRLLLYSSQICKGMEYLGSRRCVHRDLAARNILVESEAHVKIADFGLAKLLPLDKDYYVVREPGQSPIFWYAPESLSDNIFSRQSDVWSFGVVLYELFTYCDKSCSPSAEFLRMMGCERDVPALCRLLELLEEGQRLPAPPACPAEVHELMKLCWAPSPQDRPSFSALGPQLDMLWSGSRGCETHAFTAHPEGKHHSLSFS

JAK1, sequence (P23458 whole entry): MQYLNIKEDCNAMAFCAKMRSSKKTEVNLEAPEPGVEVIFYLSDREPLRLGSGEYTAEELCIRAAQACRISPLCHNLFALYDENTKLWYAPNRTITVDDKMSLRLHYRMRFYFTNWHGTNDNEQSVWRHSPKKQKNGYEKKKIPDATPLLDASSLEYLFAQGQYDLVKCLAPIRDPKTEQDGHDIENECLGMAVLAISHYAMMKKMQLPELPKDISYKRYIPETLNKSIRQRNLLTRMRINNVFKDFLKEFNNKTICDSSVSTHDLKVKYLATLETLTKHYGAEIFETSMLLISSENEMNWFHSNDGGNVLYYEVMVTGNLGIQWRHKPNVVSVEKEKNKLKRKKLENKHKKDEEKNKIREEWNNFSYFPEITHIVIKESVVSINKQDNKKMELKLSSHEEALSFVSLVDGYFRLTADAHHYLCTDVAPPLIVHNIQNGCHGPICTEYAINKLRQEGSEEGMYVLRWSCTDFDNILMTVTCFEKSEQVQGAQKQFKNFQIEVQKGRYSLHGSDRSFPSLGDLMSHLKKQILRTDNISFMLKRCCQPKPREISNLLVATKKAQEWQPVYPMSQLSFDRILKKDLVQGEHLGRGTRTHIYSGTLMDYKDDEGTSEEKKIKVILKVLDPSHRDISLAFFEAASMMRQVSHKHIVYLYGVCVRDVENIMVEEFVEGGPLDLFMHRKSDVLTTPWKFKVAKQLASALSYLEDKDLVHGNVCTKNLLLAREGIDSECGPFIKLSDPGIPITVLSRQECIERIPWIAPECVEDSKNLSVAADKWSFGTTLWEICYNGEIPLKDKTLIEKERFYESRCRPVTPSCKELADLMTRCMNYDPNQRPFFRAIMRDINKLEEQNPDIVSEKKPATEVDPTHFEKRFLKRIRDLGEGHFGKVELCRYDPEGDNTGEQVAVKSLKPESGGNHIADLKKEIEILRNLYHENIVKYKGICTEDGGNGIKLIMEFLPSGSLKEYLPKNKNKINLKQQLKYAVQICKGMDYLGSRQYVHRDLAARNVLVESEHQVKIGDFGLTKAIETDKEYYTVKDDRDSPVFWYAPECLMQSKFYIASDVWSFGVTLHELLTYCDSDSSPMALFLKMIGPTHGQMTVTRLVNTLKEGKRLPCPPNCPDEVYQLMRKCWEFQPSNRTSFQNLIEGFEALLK
JAK2, sequence (O60674 whole entry): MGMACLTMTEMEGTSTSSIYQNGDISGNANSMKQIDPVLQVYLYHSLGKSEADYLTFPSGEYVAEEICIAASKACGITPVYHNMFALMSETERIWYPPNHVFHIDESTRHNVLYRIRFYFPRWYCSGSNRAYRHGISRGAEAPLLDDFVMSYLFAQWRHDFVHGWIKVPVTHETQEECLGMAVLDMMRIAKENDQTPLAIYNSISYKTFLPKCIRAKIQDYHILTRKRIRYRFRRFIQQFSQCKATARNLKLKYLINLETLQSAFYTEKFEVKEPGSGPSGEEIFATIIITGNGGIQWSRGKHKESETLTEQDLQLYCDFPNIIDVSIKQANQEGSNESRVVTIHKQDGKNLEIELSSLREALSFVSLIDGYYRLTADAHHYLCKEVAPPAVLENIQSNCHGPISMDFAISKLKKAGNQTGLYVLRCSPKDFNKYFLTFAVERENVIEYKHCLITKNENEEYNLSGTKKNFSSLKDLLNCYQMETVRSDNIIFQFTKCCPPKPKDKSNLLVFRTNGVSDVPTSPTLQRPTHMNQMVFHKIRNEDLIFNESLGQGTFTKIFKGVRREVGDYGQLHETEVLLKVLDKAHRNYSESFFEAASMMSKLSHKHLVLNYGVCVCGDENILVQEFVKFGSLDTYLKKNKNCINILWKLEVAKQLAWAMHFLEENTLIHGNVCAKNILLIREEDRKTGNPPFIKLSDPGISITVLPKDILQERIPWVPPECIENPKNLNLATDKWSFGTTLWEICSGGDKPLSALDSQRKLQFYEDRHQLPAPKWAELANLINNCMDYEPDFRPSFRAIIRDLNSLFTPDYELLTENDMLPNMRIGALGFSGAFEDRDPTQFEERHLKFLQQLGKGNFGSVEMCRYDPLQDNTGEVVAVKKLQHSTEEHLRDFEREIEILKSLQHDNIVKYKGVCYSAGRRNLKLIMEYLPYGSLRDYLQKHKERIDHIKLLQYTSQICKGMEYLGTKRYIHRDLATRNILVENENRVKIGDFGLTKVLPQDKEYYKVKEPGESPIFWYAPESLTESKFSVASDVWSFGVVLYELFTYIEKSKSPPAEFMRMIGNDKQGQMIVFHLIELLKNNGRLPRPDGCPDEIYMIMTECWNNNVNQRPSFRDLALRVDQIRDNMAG
TYK2, sequence (P29597 whole entry): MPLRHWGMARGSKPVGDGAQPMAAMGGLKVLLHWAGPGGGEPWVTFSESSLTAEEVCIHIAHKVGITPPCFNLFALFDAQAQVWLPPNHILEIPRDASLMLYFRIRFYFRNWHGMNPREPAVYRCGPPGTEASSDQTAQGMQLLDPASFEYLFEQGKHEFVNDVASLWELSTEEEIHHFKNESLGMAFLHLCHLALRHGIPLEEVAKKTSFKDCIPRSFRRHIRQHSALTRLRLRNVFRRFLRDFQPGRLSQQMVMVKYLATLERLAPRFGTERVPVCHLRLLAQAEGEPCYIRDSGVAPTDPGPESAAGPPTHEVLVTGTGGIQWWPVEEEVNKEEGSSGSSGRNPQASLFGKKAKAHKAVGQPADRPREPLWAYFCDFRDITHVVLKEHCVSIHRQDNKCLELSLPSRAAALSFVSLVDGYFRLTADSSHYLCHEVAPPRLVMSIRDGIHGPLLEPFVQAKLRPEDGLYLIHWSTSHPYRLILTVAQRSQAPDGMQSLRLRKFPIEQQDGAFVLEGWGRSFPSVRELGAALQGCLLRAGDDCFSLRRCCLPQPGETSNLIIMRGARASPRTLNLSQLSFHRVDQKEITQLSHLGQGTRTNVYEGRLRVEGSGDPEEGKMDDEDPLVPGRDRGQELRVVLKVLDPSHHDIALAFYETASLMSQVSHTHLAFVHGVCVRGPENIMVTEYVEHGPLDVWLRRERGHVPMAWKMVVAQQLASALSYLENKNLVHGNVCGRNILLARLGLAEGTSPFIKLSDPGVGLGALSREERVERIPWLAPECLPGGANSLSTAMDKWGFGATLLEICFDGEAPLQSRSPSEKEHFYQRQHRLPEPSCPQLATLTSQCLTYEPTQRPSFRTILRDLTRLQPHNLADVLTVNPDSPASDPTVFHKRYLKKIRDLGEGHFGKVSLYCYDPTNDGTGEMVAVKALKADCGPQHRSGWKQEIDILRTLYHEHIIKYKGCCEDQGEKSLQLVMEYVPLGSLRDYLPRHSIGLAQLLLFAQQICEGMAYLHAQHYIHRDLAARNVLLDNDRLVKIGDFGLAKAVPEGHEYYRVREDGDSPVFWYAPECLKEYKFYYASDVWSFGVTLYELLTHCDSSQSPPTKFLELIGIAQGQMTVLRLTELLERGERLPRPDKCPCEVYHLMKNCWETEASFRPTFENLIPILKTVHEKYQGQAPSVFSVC

| Compound | IC50 (JAK1) [nM] | IC50 (TYK2) [nM] | IC50 (JAK2) [nM] | IC50 (JAK3) [nM] |
| --- | --- | --- | --- | --- |
| O=C1NCCCCOCc2cc(ccc2OCC2Cc3ccccc3O2)Nc2nccc(n2)-c2ccc1cc2[N+](=O)[O-] (centres unmarked) [Example 154, 4^4-((2,3-dihydroxybenzofuran-2-yl)methoxy)-1^2-nitro-6-oxa-3,11-diaza-2(4,2)-pyrimidina-1(1,4),4(1,3)-dibenzenacyclododecaphan-12-one] | 1000 to 10000 | > 10000 | 1000 to 10000 | 101 to 1000 |
| Nc1cc2ccc1-c1ccnc(n1)Nc1ccc(OCC3CCCCC3)c(c1)COCCCCNC2=O [Example 97, 1^2-amino-4^4-(cyclohexylmethoxy)-6-oxa-3,11-diaza-2(4,2)-pyrimidi-na-1(1,4),4(1,3)-dibenzenacyclodo-decaphan-12-one] | 1000 to 10000 | 1000 to 10000 | 1000 to 10000 | 11 to 100 |
| Nc1cc2ccc1-c1ccnc(n1)Nc1ccc(OC3CCC3)c(c1)COCCCCNC2=O [Example 79, 1^2-amino-4^4-cyclobutoxy-6-oxa-3,11-diaza-2(4,2)-pyrimidina-1(1,4),4(1,3)-dibenzenacyclododecaphan-12-one] | 101 to 1000 | 1000 to 10000 | 101 to 1000 | 11 to 100 |
| O=C1NCCCCOCc2cc(cc(N3CCOCC3)c2)Nc2nccc(n2)-c2ccc1cc2F [Example 27, 1^2-fluoro-4^5-morpholin-6-oxa-3,11-diaza-2(4,2)-pyrimidina-1(1,4),4(1,3)-dibenzenacyclododecaphan-12-one] | 101 to 1000 | 101 to 1000 | 11 to 100 | 11 to 100 |
| O=C1NCCCCOCc2cc(ccc2OCC2COC2)Nc2nccc(n2)-c2ccc1cc2[N+](=O)[O-] [Example 163, 1^2-nitro-4^4-(oxetan-3-ylmethoxy)-6-oxa-3,11-diaza-2(4,2)-pyrimidina-1(1,4),4(1,3)-dibenzenacyclo-dodecaphan-12-one] | 1000 to 10000 | > 10000 | 1000 to 10000 | 1000 to 10000 |
